Data: patent US8809583B2, “Methods for producing isomers of muconic acid and muconate salts” (Amyris, Inc., priority 2010, dated 2014)
Each block holds one compound with its values, some of them ahead of it.

Columns and labels:
Assay type in all cases: physicochemical
[1] = Isomerization of cis,cis-muconate to cis,trans-muconate in crude fermentation broth, monitored by 1H NMR and HPLC; conditions: for time until isomerization cis,cis to cis,trans is essentially complete: pH 4, 60° C.
Protocol: cis,cis-muconate produced from a renewable carbon source through biocatalytic conversion (e.g., according to the method of Examples 7 and 7A) was provided, and the fermentation culture including the cis,cis-muconate was warmed to 60° C. The warmed fermentation culture was adjusted to pH 4 by adding 2 N sulfuric acid over 0.5 h. The acidified culture was allowed to react for 3.5 h.
The reaction was monitored by ^1H NMR and HPLC equipped with the Prevail Organic Acid Column (150 mm×4.6 mm), to determine the endpoint of the reaction. […] In general, such isomerization reactions can be monitored to determine appropriate reaction parameters (e.g., time, temperature, pH, and the like).

[2] = Solvent extraction of cis,trans-muconic acid from acidified, filtered fermentation broth (HPLC of both phases); conditions: pH about 3
Protocol: Fermentation broth was obtained that had been isomerized to cis,trans-muconic acid, and was acidified to a pH of about 3. The solid cis,trans-muconic acid was removed by filtration to leave acidified fermentation broth containing approximately 5 to 10 grams per Liter of cis,trans-muconic acid.
(§1) To individual 50 mL conical centrifuge tubes each containing 15 mL of the filtered broth were added 15 mL of each solvent listed in tables below. Each tube was agitated for two minutes and the organic and aqueous phases allowed to separate. The aqueous layer was separated from the solvent layer by pipette and placed into a new 50 mL conical tube. Both the aqueous and solvent phases of each extraction were analyzed for muconic acid using HPLC. A second extraction was performed on each of the separated aqueous layers using fresh solvent. Again the samples were agitated, allowed to settle and the aqueous and organic phases were separated and analyzed.
Different broth samples with different amounts of cis,trans-muconic acid were used to generate the results in each table.

[3] = Solvent extraction of slurry of cis,trans-muconic acid in M9 salts (simulated broth) acidified to pH 3.0, precipitate left in; conditions: 63.34 g/L incl. precipitate
Protocol: as §1
To test the ability of solvent extraction to recover cis,trans-muconic acid after acidification to sufficiently low levels that significant amounts of the cis,trans-muconic acid has precipitated, a solution of cis,trans-muconic acid in a solution of M9 salts was used to simulate a fermentation broth. 15 grams of cis,trans-muconic acid were added to 250 mL of M9 salts giving an approximate titer of 60 g/L. This was achieved by raising the pH to 7.0 using sodium hydroxide. The broth was then acidified with sulfuric acid to pH 3.0 causing the cis,trans-muconic acid to precipitate. The solid precipitate was left in the acidified mixture, and the entire slurry was extracted twice with solvent as described above.

[4] = Precipitation of cis,trans-muconate from clarified broth at different pH values
Source text: Following isomerization (e.g., as in Example 8), broth containing cis,trans-muconic acid was cooled to approximately ambient temperature and the cells, cell debris and precipitated solids were removed from the culture broth by centrifugation. Alternatively, such solids can be removed by filtration (e.g., through a 100 kD SARTOCON® Slice cassette). The cell-free broth was then clarified by filtration (e.g., through a 10 kD SARTOCON® Slice cassette), to remove proteins. […]

[5] = Solubility of muconic acid isomers in organic solvents
[6] = broth 4.86 g/L, cyclohexanone, first line (extraction number not given)
[7] = broth 4.86 g/L, cyclohexanone, second line (extraction number not given)
[8] = broth 4.86 g/L, ethyl hexanol, first line (extraction number not given)
[9] = broth 4.86 g/L, ethyl hexanol, second line (extraction number not given)
[10] = broth 4.86 g/L, isoalcohol, first line (extraction number not given)
[11] = broth 4.86 g/L, isoalcohol, second line (extraction number not given)
[12] = broth 4.86 g/L, xylene, first line (extraction number not given)
[13] = broth 4.86 g/L, xylene, second line (extraction number not given)
[14] = broth 9.82 g/L, 1-butanol, extraction 1
[15] = broth 9.82 g/L, 1-butanol, extraction 2
[16] = broth 9.82 g/L, Octanol, extraction 1
[17] = broth 9.82 g/L, Octanol, extraction 2
[18] = broth 9.82 g/L, tBME, extraction 1
[19] = broth 9.82 g/L, tBME, extraction 2
[20] = broth 10.69 g/L, 1-pentanol, extraction 1
[21] = broth 10.69 g/L, 1-pentanol, extraction 2
[22] = broth 10.69 g/L, MEK, extraction 1
[23] = broth 10.69 g/L, MEK, extraction 2
[24] = broth 10.69 g/L, MeTHF, extraction 1
[25] = broth 10.69 g/L, MeTHF, extraction 2
[26] = broth 10.69 g/L, cyclohexane, extraction 1
[27] = broth 10.69 g/L, cyclohexane, extraction 2
[28] = broth 10.69 g/L, cylcohexanol, extraction 1
[29] = broth 10.69 g/L, cylcohexanol, extraction 2
[30] = broth 10.69 g/L, decalin, extraction 1
[31] = broth 10.69 g/L, decalin, extraction 2
[32] = broth 10.69 g/L, n-butyl acetate, extraction 1
[33] = broth 10.69 g/L, n-butyl acetate, extraction 2

time until isomerization cis,cis to cis,trans is essentially complete ([1]; HPLC traces and time course): about 1.25 hours
time until isomerization cis,cis to cis,trans is essentially complete ([1]; crude fermentation broth, 1H NMR): about 1.25 hours
isomerization from cis,cis to cis,trans-muconic acid ([1]; pH 7, HPLC traces and time course): essentially no isomerization
isomerization from cis,cis to cis,trans muconic acid ([1]; pH 7, crude fermentation broth, 0 to 3.25 hours, 1H NMR): essentially no isomerization
Structure (SMILES): O=C(O)/C=C\C=C/C(=O)O [cis,cis-muconate, cis,cis-muconic acid]

Muconic acid in aqueous phase [2, 6]: 0.21 g/L
Muconic acid in organic phase [2, 6]: 6.11 g/L
Partition coefficient [2, 6]: 29.10
Muconic acid in aqueous phase [2, 7]: 0.23 g/L
Muconic acid in organic phase [2, 7]: 0.00 g/L
Partition coefficient [2, 7]: large
Muconic acid in aqueous phase [2, 8]: 0.89 g/L
Muconic acid in organic phase [2, 8]: 3.83 g/L
Partition coefficient [2, 8]: 4.30
Muconic acid in aqueous phase [2, 9]: 0.20 g/L
Muconic acid in organic phase [2, 9]: 0.79 g/L
Partition coefficient [2, 9]: 3.95
Muconic acid in aqueous phase [2, 10]: 0.63 g/L
Muconic acid in organic phase [2, 10]: 4.87 g/L
Partition coefficient [2, 10]: 7.73
Muconic acid in aqueous phase [2, 11]: 0.04 g/L
Muconic acid in organic phase [2, 11]: 0.49 g/L
Partition coefficient [2, 11]: 12.25
Muconic acid in aqueous phase [2, 12]: 5.15 g/L
Muconic acid in organic phase [2, 12]: 0.00 g/L
Partition coefficient [2, 12]: 0.00
Muconic acid in aqueous phase [2, 13]: 4.82 g/L
Muconic acid in organic phase [2, 13]: 0.00 g/L
Partition coefficient [2, 13]: 0.00
Muconic acid in aqueous phase [2, 14]: 1.10 g/L
Muconic acid in organic phase [2, 14]: 6.26 g/L
Partition coefficient [2, 14]: 5.69
Muconic acid in aqueous phase [2, 15]: 0.27 g/L
Muconic acid in organic phase [2, 15]: 0.51 g/L
Partition coefficient [2, 15]: 1.89
Muconic acid in aqueous phase [2, 16]: 2.19 g/L
Muconic acid in organic phase [2, 16]: 5.40 g/L
Partition coefficient [2, 16]: 2.47
Muconic acid in aqueous phase [2, 17]: 1.52 g/L
Muconic acid in organic phase [2, 17]: 0.53 g/L
Partition coefficient [2, 17]: 0.35
Muconic acid in aqueous phase [2, 18]: 2.05 g/L
Muconic acid in organic phase [2, 18]: 6.53 g/L
Partition coefficient [2, 18]: 3.19
Muconic acid in aqueous phase [2, 19]: 0.72 g/L
Muconic acid in organic phase [2, 19]: 1.23 g/L
Partition coefficient [2, 19]: 1.71
Muconic acid in aqueous phase [2, 20]: 1.29 g/L
Muconic acid in organic phase [2, 20]: 8.29 g/L
Partition coefficient [2, 20]: 6.43
Muconic acid in aqueous phase [2, 21]: 0.30 g/L
Muconic acid in organic phase [2, 21]: 1.06 g/L
Partition coefficient [2, 21]: 3.53
Muconic acid in aqueous phase [2, 22]: 2.63 g/L
Muconic acid in organic phase [2, 22]: 9.65 g/L
Partition coefficient [2, 22]: 3.67
Muconic acid in aqueous phase [2, 23]: 0.84 g/L
Muconic acid in organic phase [2, 23]: 1.99 g/L
Partition coefficient [2, 23]: 2.37
Muconic acid in aqueous phase [2, 24]: 0.65 g/L
Muconic acid in organic phase [2, 24]: 7.40 g/L
Partition coefficient [2, 24]: 11.38
Muconic acid in aqueous phase [2, 25]: 0.00 g/L
Muconic acid in organic phase [2, 25]: 0.51 g/L
Partition coefficient [2, 25]: large
Muconic acid in aqueous phase [2, 26]: 10.47 g/L
Muconic acid in organic phase [2, 26]: 0.00 g/L
Partition coefficient [2, 26]: 0.00
Muconic acid in aqueous phase [2, 27]: 10.20 g/L
Muconic acid in organic phase [2, 27]: 0.00 g/L
Partition coefficient [2, 27]: 0.00
Muconic acid in aqueous phase [2, 28]: 0.98 g/L
Muconic acid in organic phase [2, 28]: 8.62 g/L
Partition coefficient [2, 28]: 8.80
Muconic acid in aqueous phase [2, 29]: 0.28 g/L
Muconic acid in organic phase [2, 29]: 1.05 g/L
Partition coefficient [2, 29]: 3.75
Muconic acid in aqueous phase [2, 30]: 10.25 g/L
Muconic acid in organic phase [2, 30]: 0.00 g/L
Partition coefficient [2, 30]: 0.00
Muconic acid in aqueous phase [2, 31]: 12.99 g/L
Muconic acid in organic phase [2, 31]: 0.00 g/L
Partition coefficient [2, 31]: 0.00
Muconic acid in aqueous phase [2, 32]: 3.96 g/L
Muconic acid in organic phase [2, 32]: 6.78 g/L
Partition coefficient [2, 32]: 1.71
Muconic acid in aqueous phase [2, 33]: 2.02 g/L
Muconic acid in organic phase [2, 33]: 3.55 g/L
Partition coefficient [2, 33]: 1.76
Muconic acid in aqueous phase ([3]; MeTHF, extraction 1): 2.03 g/L
Muconic acid in organic phase ([3]; MeTHF, extraction 1): 47.10 g/L
Partition coefficient ([3]; MeTHF, extraction 1): 23.20
Muconic acid in aqueous phase ([3]; MeTHF, extraction 2): 0.11 g/L
Muconic acid in organic phase ([3]; MeTHF, extraction 2): 1.64 g/L
Partition coefficient ([3]; MeTHF, extraction 2): 14.91
Muconic acid in aqueous phase ([3]; cyclohexanol, extraction 1): 10.53 g/L
Muconic acid in organic phase ([3]; cyclohexanol, extraction 1): 51.37 g/L
Partition coefficient ([3]; cyclohexanol, extraction 1): 4.88
Muconic acid in aqueous phase ([3]; cyclohexanol, extraction 2): 2.71 g/L
Muconic acid in organic phase ([3]; cyclohexanol, extraction 2): 3.75 g/L
Partition coefficient ([3]; cyclohexanol, extraction 2): 1.38
Muconic acid in aqueous phase ([3]; cyclohexanone, extraction 1): 2.92 g/L
Muconic acid in organic phase ([3]; cyclohexanone, extraction 1): 51.05 g/L
Partition coefficient ([3]; cyclohexanone, extraction 1): 17.48
Muconic acid in aqueous phase ([3]; cylcohexanone, extraction 2): 0.20 g/L
Muconic acid in organic phase ([3]; cylcohexanone, extraction 2): 2.10 g/L
Partition coefficient ([3]; cylcohexanone, extraction 2): 10.50
Muconic acid in aqueous phase ([3]; tBME, extraction 1): 54.00 g/L
Muconic acid in organic phase ([3]; tBME, extraction 1): 0.00 g/L
Partition coefficient ([3]; tBME, extraction 1): 0.00
Muconic acid in aqueous phase ([3]; tBME, extraction 2): 59.88 g/L
Muconic acid in organic phase ([3]; tBME, extraction 2): 0.00 g/L
Partition coefficient ([3]; tBME, extraction 2): 0.00
% ctMA in filtrate ([4]; pH 2.0): 18 weight %
% ctMA in filtrate ([4]; pH 2.5): 18 weight %
ctMA in precipitate ([4]; pH 2.5): 64 weight %
% ctMA in filtrate ([4]; pH 3.0): 22 weight %
ctMA in precipitate ([4]; pH 3.0): 61 weight %
cis,trans-muconic acid originally in the solution that precipitates ([4]; pH 3, Table 2): about 60%
cis,trans-muconic acid remaining in solution ([4]; pH 3, Table 2): approximately 40%
% ctMA in filtrate ([4]; pH 3.5): 26 weight %
ctMA in precipitate ([4]; pH 3.5): 58 weight %
% ctMA in filtrate ([4]; pH 4.0): 75 weight %
ctMA in precipitate ([4]; pH 4.0): 22 weight %
% ctMA in filtrate ([4]; pH 4.7): 100 weight %
ctMA in precipitate ([4]; pH 4.7): 0 weight %
Structure (SMILES): O=C(O)/C=C\C=C\C(=O)O [cis,trans-muconic acid]
solubility in organic solvents compared with the other isomers [5]: more soluble in organic solvents than either of the cis,cis or trans,trans isomers
